Measurements taken from PubChem BioAssay (NCI).
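Five compound concentrations were applied to cells in 96-well plates for 48 hours; endpoints were derived by simple linear interpolation of the resulting dose-response curve. At the GI50, growth is halved. The concentration for full growth arrest is given as TGI.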

Experiments:
Assay in all cases: inhibition of tumour cell growth, NCI panel, 48 h
786-0 renal = system: 786-0 renal
A498 renal = system: A498 renal
A549 NSCLC = system: A549 NSCLC
ACHN renal = system: ACHN renal
BT-549 breast = system: BT-549 breast
CAKI-1 renal = system: CAKI-1 renal
CCRF-CEM leukemia = system: CCRF-CEM leukemia
COLO 205 colon = system: COLO 205 colon
DU-145 prostate = system: DU-145 prostate
EKVX NSCLC = system: EKVX NSCLC
HCC-2998 colon = system: HCC-2998 colon
HCT-116 colon = system: HCT-116 colon
HCT-15 colon = system: HCT-15 colon
HL-60(TB) leukemia = system: HL-60(TB) leukemia
HOP-62 NSCLC = system: HOP-62 NSCLC
HOP-92 NSCLC = system: HOP-92 NSCLC
HS 578T breast = system: HS 578T breast
HT29 colon = system: HT29 colon
IGROV1 ovarian = system: IGROV1 ovarian
K-562 leukemia = system: K-562 leukemia
KM12 colon = system: KM12 colon
LOX IMVI melanoma = system: LOX IMVI melanoma
M14 melanoma = system: M14 melanoma
MALME-3M melanoma = system: MALME-3M melanoma
MCF7 breast = system: MCF7 breast
MDA-MB-231 breast = system: MDA-MB-231 breast
MDA-MB-435 = system: MDA-MB-435
MOLT-4 leukemia = system: MOLT-4 leukemia
NCI-H226 lung = system: NCI-H226 lung
NCI-H23 lung = system: NCI-H23 lung
NCI-H460 lung = system: NCI-H460 lung
NCI-H522 lung = system: NCI-H522 lung
NCI/ADR-RES ovarian = system: NCI/ADR-RES ovarian
OVCAR-3 ovarian = system: OVCAR-3 ovarian
OVCAR-4 ovarian = system: OVCAR-4 ovarian
OVCAR-5 ovarian = system: OVCAR-5 ovarian
OVCAR-8 ovarian = system: OVCAR-8 ovarian
PC-3 prostate = system: PC-3 prostate
RPMI-8226 leukemia = system: RPMI-8226 leukemia
RXF 393 renal = system: RXF 393 renal
SF-268 CNS = system: SF-268 CNS
SF-295 CNS = system: SF-295 CNS
SF-539 CNS = system: SF-539 CNS
SK-MEL-2 melanoma = system: SK-MEL-2 melanoma
SK-MEL-28 melanoma = system: SK-MEL-28 melanoma
SK-MEL-5 melanoma = system: SK-MEL-5 melanoma
SK-OV-3 ovarian = system: SK-OV-3 ovarian
SN12C renal = system: SN12C renal
SNB-19 CNS = system: SNB-19 CNS
SNB-75 CNS = system: SNB-75 CNS
SR leukemia = system: SR leukemia
SW-620 colon = system: SW-620 colon
T-47D breast = system: T-47D breast
TK-10 renal = system: TK-10 renal
U251 CNS = system: U251 CNS
UACC-257 melanoma = system: UACC-257 melanoma
UACC-62 melanoma = system: UACC-62 melanoma
UO-31 renal = system: UO-31 renal

**Q.** Which results are given for `CCN(CC)CCOc1ccc(/C=C2\CC3C4CC=C5C[C@@H](N6CCCC6)CC[C@]5(C)C4CC[C@]3(C)[C@H]2OC(C)=O)cc1OC` (some centres undefined)?
**A.** GI50 (786-0 renal): 0.635 µM; TGI (786-0 renal): 1.3 µM; GI50 (A498 renal): 1.96 µM; TGI (A498 renal): 3.46 µM; GI50 (A549 NSCLC): 1.64 µM; TGI (A549 NSCLC): 3.67 µM; GI50 (ACHN renal): 0.791 µM; TGI (ACHN renal): 1.56 µM; GI50 (BT-549 breast): 1.8 µM; TGI (BT-549 breast): 3.52 µM; GI50 (CAKI-1 renal): 1.25 µM; TGI (CAKI-1 renal): 2.99 µM; GI50 (CCRF-CEM leukemia): 0.197 µM; TGI (CCRF-CEM leukemia): 0.457 µM; GI50 (COLO 205 colon): 2.04 µM; TGI (COLO 205 colon): 4.28 µM; GI50 (DU-145 prostate): 1.05 µM; TGI (DU-145 prostate): 6.07 µM; GI50 (EKVX NSCLC): 1.59 µM; TGI (EKVX NSCLC): 3.47 µM; GI50 (HCC-2998 colon): 0.197 µM; TGI (HCC-2998 colon): 0.647 µM; GI50 (HCT-116 colon): 0.132 µM; TGI (HCT-116 colon): 0.548 µM; GI50 (HCT-15 colon): 1.08 µM; TGI (HCT-15 colon): 2.45 µM; GI50 (HL-60(TB) leukemia): 0.639 µM; TGI (HL-60(TB) leukemia): 1.77 µM; GI50 (HOP-62 NSCLC): 0.899 µM; TGI (HOP-62 NSCLC): 2.27 µM; GI50 (HOP-92 NSCLC): 0.152 µM; TGI (HOP-92 NSCLC): 1.88 µM; GI50 (HS 578T breast): 1.03 µM; TGI (HS 578T breast): 2.32 µM; GI50 (HT29 colon): 0.144 µM; TGI (HT29 colon): > 44.1 µM; TGI (IGROV1 ovarian): 1.73 µM; TGI (K-562 leukemia): > 36 µM; GI50 (KM12 colon): 0.0997 µM; TGI (KM12 colon): 1.16 µM; GI50 (LOX IMVI melanoma): 1.03 µM; TGI (LOX IMVI melanoma): 2.4 µM; GI50 (M14 melanoma): 0.133 µM; TGI (M14 melanoma): 0.217 µM; GI50 (MALME-3M melanoma): 0.579 µM; TGI (MALME-3M melanoma): 1.24 µM; GI50 (MCF7 breast): 1.21 µM; GI50 (MDA-MB-231 breast): 1.73 µM; TGI (MDA-MB-231 breast): 3.25 µM; GI50 (MDA-MB-435): 0.277 µM; TGI (MDA-MB-435): 0.745 µM; GI50 (MOLT-4 leukemia): 0.091 µM; TGI (MOLT-4 leukemia): 0.345 µM; GI50 (NCI-H226 lung): 1.26 µM; TGI (NCI-H226 lung): 3.3 µM; GI50 (NCI-H23 lung): 1.63 µM; TGI (NCI-H23 lung): 3.32 µM; GI50 (NCI-H460 lung): 1.6 µM; TGI (NCI-H460 lung): 4.46 µM; GI50 (NCI-H522 lung): 2.35 µM; GI50 (NCI/ADR-RES ovarian): 0.57 µM; TGI (NCI/ADR-RES ovarian): 1.93 µM; GI50 (OVCAR-3 ovarian): 0.773 µM; TGI (OVCAR-3 ovarian): 1.84 µM; GI50 (OVCAR-4 ovarian): 2.14 µM; TGI (OVCAR-4 ovarian): 5.65 µM; GI50 (OVCAR-5 ovarian): 1.39 µM; TGI (OVCAR-5 ovarian): 3.06 µM; GI50 (OVCAR-8 ovarian): 1.07 µM; TGI (OVCAR-8 ovarian): 3.47 µM; GI50 (PC-3 prostate): 1.13 µM; TGI (PC-3 prostate): 2.51 µM; GI50 (RPMI-8226 leukemia): 0.124 µM; TGI (RPMI-8226 leukemia): 5.24 µM; GI50 (RXF 393 renal): 0.815 µM; TGI (RXF 393 renal): 2.77 µM; GI50 (SF-268 CNS): 1.86 µM; TGI (SF-268 CNS): 4.56 µM; GI50 (SF-295 CNS): 1.55 µM; TGI (SF-295 CNS): 2.95 µM; GI50 (SF-539 CNS): 0.597 µM; TGI (SF-539 CNS): 1.2 µM; GI50 (SK-MEL-2 melanoma): 3.45 µM; TGI (SK-MEL-2 melanoma): > 100 µM; GI50 (SK-MEL-28 melanoma): 1.71 µM; TGI (SK-MEL-28 melanoma): 3.56 µM; GI50 (SK-MEL-5 melanoma): 0.72 µM; TGI (SK-MEL-5 melanoma): 1.39 µM; GI50 (SK-OV-3 ovarian): 2.4 µM; TGI (SK-OV-3 ovarian): 6.06 µM; GI50 (SN12C renal): 1.19 µM; TGI (SN12C renal): 2.64 µM; GI50 (SNB-19 CNS): 0.698 µM; TGI (SNB-19 CNS): 3.47 µM; GI50 (SNB-75 CNS): 2.21 µM; TGI (SNB-75 CNS): 5.1 µM; GI50 (SR leukemia): 0.191 µM; TGI (SR leukemia): 0.444 µM; GI50 (SW-620 colon): 0.555 µM; TGI (SW-620 colon): 1.92 µM; GI50 (T-47D breast): 1.03 µM; TGI (T-47D breast): 2.21 µM; GI50 (TK-10 renal): 1.24 µM; TGI (TK-10 renal): 2.67 µM; GI50 (U251 CNS): 1.18 µM; TGI (U251 CNS): 2.44 µM; GI50 (UACC-257 melanoma): 1.91 µM; TGI (UACC-257 melanoma): 3.92 µM; GI50 (UACC-62 melanoma): 0.715 µM; TGI (UACC-62 melanoma): 1.41 µM; GI50 (UO-31 renal): 2.28 µM

**Q.** What does the source list for `CNC(=O)N(C1=NCC(C)S1)c1ccc(C)c(C)c1` (centres undefined)?
**A.** TGI (786-0 renal): > 48.8 µM; TGI (A498 renal): 17 µM; TGI (A549 NSCLC): > 100 µM; TGI (ACHN renal): > 76.5 µM; TGI (BT-549 breast): > 100 µM; TGI (CAKI-1 renal): 20.6 µM; TGI (CCRF-CEM leukemia): > 62.8 µM; TGI (COLO 205 colon): > 44.6 µM; TGI (DU-145 prostate): > 100 µM; TGI (EKVX NSCLC): 70.4 µM; TGI (HCC-2998 colon): 24.1 µM; TGI (HCT-116 colon): > 76.8 µM; TGI (HCT-15 colon): > 54 µM; TGI (HL-60(TB) leukemia): 4.1 µM; TGI (HOP-62 NSCLC): > 100 µM; TGI (HOP-92 NSCLC): > 29.5 µM; TGI (HS 578T breast): > 100 µM; TGI (HT29 colon): 12.7 µM; TGI (IGROV1 ovarian): > 100 µM; TGI (K-562 leukemia): > 20.1 µM; TGI (KM12 colon): > 55.7 µM; TGI (LOX IMVI melanoma): > 48.5 µM; TGI (M14 melanoma): > 42.3 µM; TGI (MALME-3M melanoma): 55.2 µM; TGI (MCF7 breast): 26.6 µM; TGI (MDA-MB-231 breast): > 100 µM; TGI (MDA-MB-435): 3.49 µM; TGI (MOLT-4 leukemia): > 59.2 µM; TGI (NCI-H226 lung): > 100 µM; TGI (NCI-H23 lung): > 100 µM; TGI (NCI-H460 lung): 42.6 µM; TGI (NCI-H522 lung): 17.1 µM; TGI (NCI/ADR-RES ovarian): > 20.4 µM; TGI (OVCAR-3 ovarian): 8.4 µM; TGI (OVCAR-4 ovarian): > 100 µM; TGI (OVCAR-5 ovarian): > 100 µM; TGI (OVCAR-8 ovarian): 45.7 µM; TGI (PC-3 prostate): > 55 µM; TGI (RPMI-8226 leukemia): 15.1 µM; TGI (RXF 393 renal): 8.31 µM; TGI (SF-268 CNS): 40.6 µM; TGI (SF-295 CNS): > 73.6 µM; TGI (SF-539 CNS): > 25.6 µM; TGI (SK-MEL-2 melanoma): 15.5 µM; TGI (SK-MEL-28 melanoma): > 92.8 µM; TGI (SK-MEL-5 melanoma): 19.1 µM; TGI (SK-OV-3 ovarian): > 93 µM; TGI (SN12C renal): > 87.2 µM; TGI (SNB-19 CNS): > 100 µM; TGI (SNB-75 CNS): > 24.7 µM; TGI (SR leukemia): > 71.7 µM; TGI (SW-620 colon): > 100 µM; TGI (T-47D breast): > 100 µM; TGI (TK-10 renal): > 68.2 µM; TGI (U251 CNS): > 36.8 µM; TGI (UACC-257 melanoma): > 78.1 µM; TGI (UACC-62 melanoma): > 100 µM; TGI (UO-31 renal): > 78.7 µM
